Results from patent US5167963A, “8,10-dideazatetrahydrofolic acid derivatives” (SRI International, priority 1990, dated 1992).
Read-outs that look alike come from different tables or passages of the source.

What was measured:
L1210 cells = assay: Growth inhibition assay for L1210 cells; format: cell-based; conditions: Mus musculus; 72 hours, murine L1210 cells, RPMI 1640 with 10% fetal calf serum
Source text: Murine L1210 cells were obtained as intraperitoneal ascites suspensions from BD2F1 mice. […] Cultures in the logarithmic stage of growth were harvested, resuspended and exposed to test compounds at varying concentrations. Growth of controls was monitored to verify that the growth pattern was normal.

[1] = molecular target: T1, glycinamide ribotide formyl transferase (FGAR) (Lacticaseibacillus casei, UniProt A0AAN1KEB7); assay: Enzyme assay for FGAR (glycinamide ribotide formyl transferase) inhibition; format: biochemical, Lactobacillus casei; conditions: in words
T1 sequence (A0AAN1KEB7 1-189): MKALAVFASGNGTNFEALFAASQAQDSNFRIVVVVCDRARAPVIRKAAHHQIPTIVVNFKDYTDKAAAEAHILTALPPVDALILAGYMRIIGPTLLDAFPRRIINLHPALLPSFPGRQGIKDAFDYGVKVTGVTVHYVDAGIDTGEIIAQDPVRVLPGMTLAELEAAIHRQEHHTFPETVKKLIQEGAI
Procedure: Inhibition of the glycinamide ribotide formyl transferase (FGAR) and amino-imidazole carboxamide ribotide formyl transferase (AICAR) enzymes was determined by the following test procedure.
Lactobacillus casei extract protein (20 μg) is incubated with 45 μmol of Tris-HCl buffer; pH 7.5, 90 μmol of 2-mercaptoethanol, 0.20 μmol of α,β-glycine-amideribotide and 50 nmol of (6R)-10-formyltetrahydrofolate in 0.9 ml for 1 minute at 30° C. The formation of tetrahydrofolate is followed by change in the ultraviolet maximum at 298 nm. For assay of inhibition the test compounds are added along with the 6R-10-formyl FAHy and the concentration that inhibits the reaction by 50% (Ic50) is determined.

[2] = Cytotoxicity (focus and potency of cytotoxic action); format: cell-based; conditions: in words
dihydrofolate reductase = conditions: in words; from prior literature/patents; cited from earlier work
L1210 leukemia = conditions: in words, Taylor et al, U.S. Pat. No. 4,684,653, cited from earlier work
thymidylate synthase = conditions: in words; J. A. R. Mead et al., Cancer Research (1966); cited from earlier work
[3] = in words; DeGraw et al; cited from earlier work

## Nc1nc2c(c(=O)[nH]1)CC(CCc1ccc(C(=O)N[C@@H](CCC(=O)O)C(=O)O)cc1)CN2 (stereo partly drawn) [Compound 2, N-(4-[2-(2-amino-4-hydroxy-5,6,7,8-tetrahydropyrido[2,3-d]pyrimidin-6-yl)-ethyl]benzoyl)-L-glutamic acid]
L1210 cells
  IC50: 0.042 µM
[1]; listed as DDTHF
  inhibition of glycinamide ribotide transformylase (GAR transformylase, FGAR): potent inhibitor of GAR transformylase
[1]; listed as Taylor et al compound
  inhibition of glycinamide ribotide transformylase (GAR transformylase, FGAR): clearly an inhibitor of FGAR
[2]
  cytotoxic action: potent cytotoxin
Dihydrofolate reductase
  inhibition of dihydrofolate reductase: weak inhibitor of dihydrofolate reductase
L1210 leukemia; listed as N-(4-[2-(2-amino-4-hydroxy-5,6,7,8-tetrahydropyrido[2,3-d]pyrimidin-6-yl)- e thy
  activity against L1210 leukemia: good activity against L-1210 leukemia which is comparable to methotrexate
L1210 leukemia; listed as N-(4-[2-(2-amino-4-hydroxy-5,6,7,8-tetrahydropyrido[2,3-d]pyrimidin-6-yl)- ethyl
  activity against L1210 leukemia: good activity against L1210 leukemia which is comparable to methotrexate

## Nc1nc2c(c(=O)[nH]1)NC(CCc1ccc(C(=O)N[C@@H](CCC(=O)O)C(=O)O)cc1)CC2 (stereo partly drawn) [Compound 3, 8,10-Dideaza-5,6,7,8-tetrahydrofolic Acid]
L1210 cells
  IC50: 0.0968 µM

## Nc1nc2c(c(=O)[nH]1)N[C@@H](CCNc1ccc(C(=O)NC(CCC(=O)O)C(=O)O)cc1)CN2 (stereo partly drawn) [tetrahydrohomofolate]
Thymidylate synthase
  inhibition of thymidylate synthetase in vitro: potent inhibitor

## CN1c2c(nc(N)[nH]c2=O)CCC1CCc1ccc(C(=O)N[C@@H](CCC(=O)O)C(=O)O)cc1 (stereo partly drawn) [Compound 4, 5-Methyl-8,10-dideaza-5,6,7,8-tetrahydrofolic Acid]
L1210 cells
  IC50: 0.0382 µM

## Nc1nc2ccc(CNc3ccc(C(=O)N[C@@H](CCC(=O)O)C(=O)O)cc3)nc2c(=O)[nH]1 [8-deazafolic acid]
Dihydrofolate reductase
  inhibition of dihydrofolate reductase: did not significantly affect DHFR

## CN(Cc1cnc2nc(N)nc(N)c2n1)c1ccc(C(=O)N[C@@H](CCC(=O)O)C(=O)O)cc1 [Compound 1, methotrexate]
L1210 cells
  IC50: 0.0043 µM
Dihydrofolate reductase
  inhibition of dihydrofolate reductase: inhibiting dihydrofolate reductase (DHFR)

## Nc1nc2c(c(=O)[nH]1)N(C=O)C(CCc1ccc(C(=O)NC(CCC(=O)O)C(=O)O)cc1)CC2 (stereo not drawn) [Compound 5]
L1210 cells
  IC50: 0.657 µM

## Nc1nc2c(c(=O)[nH]1)CC(CCc1ccc(C(=O)N[C@@H](CCC(=O)O)C(=O)O)cc1)CC2 (stereo partly drawn) [5,8, 10-trideaza FH4]
[1]
  inhibition of glycinamide ribotide transformylase (GAR transformylase, FGAR): devoid of enzyme or cytotoxic action
[2]
  cytotoxic action: devoid of enzyme or cytotoxic action

## Nc1nc2ccc(CCc3ccc(C(=O)N[C@@H](CCC(=O)O)C(=O)O)cc3)nc2c(=O)[nH]1 [8,10-dideazafolic acid]
Dihydrofolate reductase
  inhibition of dihydrofolate reductase: did not significantly affect DHFR
[3]
  antifolate activity: active antifolates
